Like-named read-outs stand apart in the source and are kept apart here.
Assay: Mouse blood and tissue PK (LC/MS-MS)
Assay type: in vivo
Settings: mouse; for concentration at 2 h / concentration at 24 h / concentration at 4 h / concentration at 8 h / concentration at 48 h / Kp: oral; for concentration at 2 h / concentration at 24 h / concentration at 4 h / concentration at 8 h / concentration at 48 h: read-out: RMC-6236 (nM) Tumor; for Kp: tumor relative to whole blood, read-out: Tumor/Blood AUC Ratio; for AUC(0-t): read-out: Blood AUClast
Protocol: For single-dose PKPD study, mice were randomized and assigned into groups (n = 3/dose/time point). […] Blood and tissues, including the tumor, brain, colon, ear skin, and muscle, were harvested at indicated time points. […] The whole blood, tumor, brain, colon, and ear skin concentrations of RMC-6236 were determined using liquid chromatography–tandem mass spectrometry (LC/MS-MS) methods. […] After thorough mixing and centrifugation, the supernatant was diluted with water or directly analyzed on a Sciex 5500 or Sciex 6500+ triple quadrupole mass spectrometer equipped with an ACQUITY or Shimadzu UPLC system. […] Bioanalysis on blood and tissue samples from xenograft models was run at Pharmaron and Wuxi AppTec. Concentrations reported as below the quantification limit were treated as zero for PK analysis. PK parameters were calculated by noncompartmental analysis of the concentration–time profiles using Phoenix WinNonLin (version 8.3 Certara). Apparent terminal elimination half-life (t1/2) values were calculated as ln(2)/k, where k represents the terminal elimination rate constant. Area under the concentration–time curve (AUC) values were estimated using a linear trapezoidal method. AUClast values were calculated from the dosing time to the last quantifiable concentration. Maximum concentration (Cmax) was recorded as observed.

[1] = BALB/c nude, ear skin, 3 mg/kg, sheet Ear Skin, model Capan-2, study Capan-2 #3_PHA 2023, 3 mg/kg
[2] = BALB/c nude, ear skin, 10 mg/kg, sheet Ear Skin, model Capan-2, study Capan-2 #3_PHA 2023, 10 mg/kg
[3] = BALB/c nude, ear skin, 25 mg/kg, sheet Ear Skin, model Capan-2, study Capan-2 #3_PHA 2023, 25 mg/kg
[4] = BALB/c nude, ear skin, 50 mg/kg, sheet Ear Skin, model Capan-2, study Capan-2 #3_PHA 2023, 50 mg/kg
[5] = BALB/c nude, ear skin, 100 mg/kg, sheet Ear Skin, model Capan-2, study Capan-2 #3_PHA 2023, 100 mg/kg
[6] = BALB/c nude, tumor, 0.3 mg/kg, Capan-2, study Capan-2 #3_PHA 2020, 0.3 mg/kg
[7] = BALB/c nude, tumor, 3 mg/kg, Capan-2, study Capan-2 #3_PHA 2020, 3 mg/kg
[8] = BALB/c nude, tumor, 3 mg/kg, Capan-2, study Capan-2 #3_PHA 2023, 3 mg/kg
[9] = BALB/c nude, tumor, 10 mg/kg, Capan-2, study Capan-2 #3_PHA 2020, 10 mg/kg
[10] = BALB/c nude, tumor, 10 mg/kg, Capan-2, study Capan-2 #3_PHA 2023, 10 mg/kg
[11] = BALB/c nude, tumor, 10 mg/kg, sheet colon, Capan-2, Capan-2 #3_PHA 2023, 10 mg/kg
[12] = BALB/c nude, tumor, 25 mg/kg, Capan-2, study Capan-2 #3_PHA 2020, 25 mg/kg
[13] = BALB/c nude, tumor, 25 mg/kg, Capan-2, study Capan-2 #3_PHA 2023, 25 mg/kg
[14] = BALB/c nude, tumor, 25 mg/kg, sheet colon, Capan-2, Capan-2 #3_PHA 2023, 25 mg/kg
[15] = BALB/c nude, tumor, 40 mg/kg, Capan-2, study Capan-2 #3_PHA 2020, 40 mg/kg
[16] = BALB/c nude, tumor, 50 mg/kg, Capan-2, study Capan-2 #3_PHA 2023, 50 mg/kg
[17] = BALB/c nude, tumor, 50 mg/kg, sheet colon, Capan-2, Capan-2 #3_PHA 2023, 50 mg/kg
[18] = BALB/c nude, tumor, 100 mg/kg, Capan-2, study Capan-2 #3_PHA 2023, 100 mg/kg
[19] = BALB/c nude, tumor, 100 mg/kg, sheet colon, Capan-2, Capan-2 #3_PHA 2023, 100 mg/kg
[20] = BALB/c nude, whole blood, po, 3 mg/kg, Capan-2 (3 mg/kg), single dose
[21] = BALB/c nude, whole blood, po, 10 mg/kg, Capan-2 (10 mg/kg), single dose
[22] = BALB/c nude, whole blood, po, 25 mg/kg, Capan-2 (25 mg/kg), single dose
[23] = Balb/c nude, whole blood, po, 25 mg/kg, LU99-luc IC #2 (25 mg/kg), single dose

Compound CCn1c(-c2cc(N3CCN(C)CC3)cnc2[C@H](C)OC)c2c3cc(ccc31)-c1csc(n1)C[C@H](NC(=O)[C@H]1C[C@@H]1C)C(=O)N1CCC[C@H](N1)C(=O)OCC(C)(C)C2 [RMC-6236] has a concentration at 2 h (BALB/c nude, colon, 3 mg/kg, sheet colon, Capan-2, Capan-2 #3_PHA 2023, 3 mg/kg) of 1370 nM, a concentration at 2 h (BALB/c nude, colon, 25 mg/kg, sheet colon, Capan-2, Capan-2 #3_PHA 2023, 25 mg/kg) of 5810 nM and a concentration at 24 h (BALB/c nude, colon, 50 mg/kg, sheet colon, Capan-2, Capan-2 #3_PHA 2023, 50 mg/kg) of 147 nM. It also gave a concentration at 24 h (BALB/c nude, colon, 100 mg/kg, sheet colon, Capan-2, Capan-2 #3_PHA 2023, 100 mg/kg) of 531 nM, a concentration at 2 h [1] of 175 nM and a concentration at 4 h [1] of 255 nM. The concentration at 8 h [1] was 195 nM, the concentration at 24 h [1] was 48.3 nM and the concentration at 2 h [2] was 469 nM. It also gave a concentration at 4 h [2] of 883 nM, a concentration at 8 h [2] of 1080 nM and a concentration at 24 h [2] of 219 nM. It also gave a concentration at 48 h [2] of 41.6 nM, a concentration at 2 h [3] of 1640 nM and a concentration at 4 h [3] of 2370 nM. It also gave a concentration at 8 h [3] of 1360 nM, a concentration at 24 h [3] of 512 nM and a concentration at 48 h [3] of 147 nM. For the same compound, the concentration at 2 h [4] was 5540 nM, the concentration at 4 h [4] was 7670 nM and the concentration at 8 h [4] was 4410 nM. For the same compound, the concentration at 24 h [4] was 1110 nM, the concentration at 48 h [4] was 276 nM and the concentration at 2 h [5] was 12300 nM. It also gave a concentration at 8 h [5] of 6560 nM, a concentration at 24 h [5] of 2500 nM and a Kp (BALB/c nude, 3 mg/kg, Capan-2 (3 mg/kg), single dose) of 3.3. For the same compound, the Kp (BALB/c nude, 10 mg/kg, Capan-2 (10 mg/kg), single dose) was 4.6, the Kp (BALB/c nude, 25 mg/kg, Capan-2 (25 mg/kg), single dose) was 5.8 and the concentration at 2 h [6] was 15.2 nM. The concentration at 8 h [6] was 14.8 nM, the concentration at 24 h [6] was 5.5 nM and the concentration at 2 h [7] was 314 nM. The concentration at 8 h [7] was 136 nM, the concentration at 24 h [7] was 67 nM and the concentration at 48 h [7] was 22 nM. It also gave a concentration at 2 h [8] of 148 nM, a concentration at 4 h [8] of 290 nM and a concentration at 8 h [8] of 231 nM. It also gave a concentration at 24 h [8] of 109 nM, a concentration at 48 h [8] of 48.6 nM and a concentration at 8 h (BALB/c nude, tumor, 3 mg/kg, sheet colon, Capan-2, Capan-2 #3_PHA 2023, 3 mg/kg) of 567 nM. It also gave a concentration at 2 h [9] of 671 nM, a concentration at 8 h [9] of 829 nM and a concentration at 24 h [9] of 406 nM. The concentration at 48 h [9] was 101 nM, the concentration at 2 h [10] was 630 nM and the concentration at 4 h [10] was 1230 nM. For the same compound, the concentration at 8 h [10] was 1120 nM, the concentration at 24 h [10] was 563 nM and the concentration at 48 h [10] was 142 nM. For the same compound, the concentration at 4 h [11] was 3110 nM, the concentration at 8 h [11] was 1860 nM and the concentration at 24 h [11] was 40.6 nM. The concentration at 2 h [12] was 2200 nM, the concentration at 8 h [12] was 2400 nM and the concentration at 24 h [12] was 1250 nM. The concentration at 2 h [13] was 2210 nM, the concentration at 4 h [13] was 3050 nM and the concentration at 8 h [13] was 2290 nM. It also gave a concentration at 24 h [13] of 1130 nM, a concentration at 4 h [14] of 6440 nM and a concentration at 8 h [14] of 3260 nM. It also gave a concentration at 2 h [15] of 3660 nM, a concentration at 8 h [15] of 3360 nM and a concentration at 24 h [15] of 1740 nM. The concentration at 2 h [16] was 4650 nM, the concentration at 4 h [16] was 5600 nM and the concentration at 8 h [16] was 5310 nM. It also gave a concentration at 24 h [16] of 2520 nM, a concentration at 2 h [17] of 21800 nM and a concentration at 4 h [17] of 10600 nM. The concentration at 2 h [18] was 10400 nM, the concentration at 4 h [18] was 17300 nM and the concentration at 8 h [18] was 7500 nM. The concentration at 24 h [18] was 4270 nM, the concentration at 48 h [18] was 1150 nM and the concentration at 2 h [19] was 25300 nM. The concentration at 4 h [19] was 30100 nM, the half-life (BALB/c nude, tumor, po, 3 mg/kg, Capan-2 (3 mg/kg), single dose, read-out: Tumor t1/2 (converted)) was 16.6 h and the half-life (BALB/c nude, tumor, po, 10 mg/kg, Capan-2 (10 mg/kg), single dose, read-out: Tumor t1/2 (converted)) was 15.7 h. For the same compound, the half-life (BALB/c nude, tumor, po, 25 mg/kg, Capan-2 (25 mg/kg), single dose, read-out: Tumor t1/2 (converted)) was 14 h, the Cmax [20] was 252 ng/mL and the AUC(0-t) [20] was 1560 ng·h/mL. For the same compound, the Cmax [21] was 950 ng/mL, the AUC(0-t) [21] was 5090 ng·h/mL and the half-life (BALB/c nude, whole blood, po, 10 mg/kg, Capan-2 (10 mg/kg), single dose, read-out: Blood t1/2 (converted)) was 3.77 h. The Cmax [22] was 2920 ng/mL, the AUC(0-t) [22] was 11600 ng·h/mL and the half-life (BALB/c nude, whole blood, po, 25 mg/kg, Capan-2 (25 mg/kg), single dose, read-out: Blood t1/2 (converted)) was 2.77 h. The half-life (Balb/c nude, tumor (intracranial), po, 25 mg/kg, LU99-luc IC (25 mg/kg), intracranial tumor, read-out: Tumor t1/2 (converted)) was 16.1 h, the half-life (Balb/c nude, tumor (subcutaneous xenograft), sc, 25 mg/kg, LU99-luc SC (25 mg/kg), subcutaneous xenograft tumor, read-out: Tumor t1/2 (converted)) was 25.3 h and the Cmax [23] was 2020 ng/mL. It also gave an AUC(0-t) [23] of 14000 ng·h/mL and a Cmax (Balb/c nude, whole blood, po, 25 mg/kg, LU99-luc IC (25 mg/kg), single dose) of 2500 ng/mL.

— paper PMC11149917, “Translational and Therapeutic Evaluation of RAS-GTP Inhibition by RMC-6236 in RAS-Driven Cancers” (Cancer Discovery, 2024)
